The values below come from US10800792B2, “Inhibitors of Bruton's tyrosine kinase and method of their use” (JANSSEN PHARMACEUTICA NV, priority 2015, dated 2020).

Chain of unphosphorylated-BTK kinase domain (UP-BTK), GST-tagged human BTK (389-659aa) (Q06187 389-659): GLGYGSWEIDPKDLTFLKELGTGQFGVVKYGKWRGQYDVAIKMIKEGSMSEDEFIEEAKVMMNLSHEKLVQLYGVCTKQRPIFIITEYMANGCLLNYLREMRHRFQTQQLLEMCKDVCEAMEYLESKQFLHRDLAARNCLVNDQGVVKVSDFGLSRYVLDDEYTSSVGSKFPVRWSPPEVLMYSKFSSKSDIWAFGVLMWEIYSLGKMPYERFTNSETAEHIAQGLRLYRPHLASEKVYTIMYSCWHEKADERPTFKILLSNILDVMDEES

One experiment has as its target unphosphorylated-BTK kinase domain (UP-BTK), GST-tagged human BTK (389-659aa) (Homo sapiens (Human), UniProt Q06187). The experiment in a line: BTK kinase Lanthascreen binding assay. Particulars: unphosphorylated-BTK kinase domain, 50 nM Tracer 236, 60 minutes; pIC50 = negative log of the IC50 in molar. The method in brief:
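A fluorescent tracer is bound to unphosphorylated BTK; test compound is added to compete it off; the Lanthascreen signal is read and IC50 is fitted, then reported as its negative log in molar.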
Background: TR-FRET usually uses a lanthanide donor and a delayed reading to cut background.
Consider `C/C=C/C(=O)N1CCC[C@@H](NC(=O)c2sc3nccc4c3c2NC(=O)N4c2ccc(Oc3ccccc3)cc2C)C1` (single isomer, unassigned) [Example 474, (R,*E)-N-(1-(But-2-enoyl)piperidin-3-yl)-5-(*R)-(2-methyl-4-phenoxyphenyl)-4-oxo-4,5-dihydro-3H-1-thia-3,5,8-triazaacenaphthylene-2-carboxamide], for which the “BTK_I_binding pIC50” value is on record as 7.6.

As to `C/C=C\C(=O)N1CCC[C@@H](NC(=O)c2sc3nccc4c3c2NC(=O)N4c2ccc(Oc3ccccc3)cc2C)C1` (single isomer, unassigned) [Example 475, (R,*Z)—N-(1-(But-2-enoyl)piperidin-3-yl)-5-(*R)-(2-methyl-4-phenoxyphenyl)-4-oxo-4,5-dihydro-3H-1-thia-3,5,8-triazaacenaphthylene-2-carboxamide], the “BTK_I_binding pIC50” value came out at 6.1.

As to `C/C=C\C(=O)N1CCC[C@@H](NC(=O)c2sc3nccc4c3c2NC(=O)N4c2ccc(Oc3ccccc3)cc2C)C1` (single isomer, unassigned) [Example 476, (R,*Z)—N-(1-(But-2-enoyl)piperidin-3-yl)-5-(*S)-(2-methyl-4-phenoxyphenyl)-4-oxo-4,5-dihydro-3H-1-thia-3,5,8-triazaacenaphthylene-2-carboxamide], the “BTK_I_binding pIC50” value was found to be 7.4.

Turning to `Cc1cc(Oc2ccccc2)ccc1N1C(=O)Nc2c(C(=O)NC3COCCN(C#N)C3)sc3nccc1c23` (single isomer, unassigned) [Example 485, N-(4-Cyano-1,4-oxazepan-6-yl)-5-(*S)-(2-methyl-4-phenoxyphenyl)-4-oxo-4,5-dihydro-3H-1-thia-3,5,8-triazaacenaphthylene-2-carboxamide], the “BTK_I_binding pIC50” value amounted to 7.9.

In the case of `Cc1cc(Oc2ccccc2)ccc1N1C(=O)Nc2c(C(=O)N[C@@H]3CCCN(C(=O)/C=C/CN(C)C)C3)sc3nccc1c23` (single isomer, unassigned) [Example 488, (R,E)-N-(1-(4-(Dimethylamino)but-2-enoyl)piperidin-3-yl)-5-(*S)-(2-methyl-4-phenoxyphenyl)-4-oxo-4,5-dihydro-3H-1-thia-3,5,8-triazaacenaphthylene-2-carboxamide], the “BTK_I_binding pIC50” value is recorded as 7.2.

In the case of `Cc1cc(Oc2ccccc2)ccc1N1C(=O)Nc2c(C(=O)N[C@@H]3CCN(C(=O)/C(C#N)=C/C4CC4)C3)sc3nccc1c23` (single isomer, unassigned) [Example 491, (R,E)-N-(1-(2-Cyano-3-cyclopropylacryloyl)pyrrolidin-3-yl)-5-(*S)-(2-methyl-4-phenoxyphenyl)-4-oxo-4,5-dihydro-3H-1-thia-3,5,8-triazaacenaphthylene-2-carboxamide], the “BTK_I_binding pIC50” value worked out at 7.6.

For the compound `CNC/C=C/C(=O)N1CC[C@@H](NC(=O)c2sc3nccc4c3c2NC(=O)N4c2ccc(Oc3ccccc3)cc2C)C1` (single isomer, unassigned) [Example 492, (R,E)-5-(*S)-(2-Methyl-4-phenoxyphenyl)-N-(1-(4-(methylamino)but-2-enoyl)pyrrolidin-3-yl)-4-oxo-4,5-dihydro-3H-1-thia-3,5,8-triazaacenaphthylene-2-carboxamide], the “BTK_I_binding pIC50” value amounted to 8.0.

Regarding `Cc1cc(Oc2ccccc2)ccc1N1C(=O)Nc2c(C(=O)N[C@@H]3CCN(C)C3)sc3nccc1c23` (single isomer, unassigned) [Example 493, (R)-5-(*S)-(2-Methyl-4-phenoxyphenyl)-N-(1-methylpyrrolidin-3-yl)-4-oxo-4,5-dihydro-3H-1-thia-3,5,8-triazaacenaphthylene-2-carboxamide], the “BTK_I_binding pIC50” value is listed as 6.9.

Consider `Cc1cc(Oc2ccccc2)ccc1N1C(=O)Nc2c(C(=O)N[C@@H]3CCN(C(=O)CCS(C)(=O)=O)C3)sc3nccc1c23` (single isomer, unassigned) [Example 494, (R)-5-(*S)-(2-Methyl-4-phenoxyphenyl)-N-(1-(3-(methylsulfonyl)propanoyl)pyrrolidin-3-yl)-4-oxo-4,5-dihydro-3H-1-thia-3,5,8-triazaacenaphthylene-2-carboxamide], for which the “BTK_I_binding pIC50” value is 8.0.

As for `COCC(=O)N1CCC[C@@H](NC(=O)c2sc3nccc4c3c2NC(=O)N4c2ccc(Oc3ccccc3)cc2C)C1` (single isomer, unassigned) [Example 495, (R)—N-(1-(2-Methoxyacetyl)piperidin-3-yl)-5-(*S)-(2-methyl-4-phenoxyphenyl)-4-oxo-4,5-dihydro-3H-1-thia-3,5,8-triazaacenaphthylene-2-carboxamide], the “BTK_I_binding pIC50” value is recorded as 7.5.

As to `C=CC(=O)N1CCC[C@@H](NC(=O)c2sc3nccc4c3c2NC(=O)N4c2ccc(OC3CCC3)cc2C)C1` (single isomer, unassigned) [Example 501, (R)—N-(1-Acryloylpiperidin-3-yl)-5-(*S)-(4-cyclobutoxy-2-methylphenyl)-4-oxo-4,5-dihydro-3H-1-thia-3,5,8-triazaacenaphthylene-2-carboxamide], the “BTK_I_binding pIC50” value stood at 7.9.

Regarding `Cc1cc(Oc2ccccc2)ccc1N1C(=O)Nc2c(C(=O)N[C@@H]3CCN(C(=O)/C=C/CN(C)C)C3)sc3nccc1c23` (single isomer, unassigned) [Example 502, (R,E)-N-(1-(4-(Dimethylamino)but-2-enoyl)pyrrolidin-3-yl)-5-(*S)-(2-methyl-4-phenoxyphenyl)-4-oxo-4,5-dihydro-3H-1-thia-3,5,8-triazaacenaphthylene-2-carboxamide], the “BTK_I_binding pIC50” value worked out at 7.9.

For `Cc1cc(Oc2ccccc2)ccc1N1C(=O)Nc2c(C(=O)N[C@@H]3CCCN(C(=O)/C=C/CO)C3)sc3nccc1c23` (single isomer, unassigned) [Example 503, (R,E)-N-(1-(4-Hydroxybut-2-enoyl)piperidin-3-yl)-5-(*S)-(2-methyl-4-phenoxyphenyl)-4-oxo-4,5-dihydro-3H-1-thia-3,5,8-triazaacenaphthylene-2-carboxamide], the “BTK_I_binding pIC50” value turned out to be 7.8.

In the case of `Cc1cc(Oc2ccccc2)ccc1N1C(=O)Nc2c(C(=O)N[C@@H]3CCCN(C(=O)/C(C#N)=C/C4(C)COC4)C3)sc3nccc1c23` (single isomer, unassigned) [Example 509, (R,EZ)—N-(1-(2-Cyano-3-(3-methyloxetan-3-yl)acryloyl)piperidin-3-yl)-5-(*S)-(2-methyl-4-phenoxyphenyl)-4-oxo-4,5-dihydro-3H-1-thia-3,5,8-triazaacenaphthylene-2-carboxamide], the “BTK_I_binding pIC50” value is 7.9.

In the case of `Cc1cc(Oc2ccccc2)ccc1N1C(=O)Nc2c(C(=O)N[C@@H]3CCN(C(=O)/C=C/CN)C3)sc3nccc1c23` (single isomer, unassigned) [Example 520, (R,E)-N-(1-(4-Aminobut-2-enoyl)pyrrolidin-3-yl)-5-(*S)-(2-methyl-4-phenoxyphenyl)-4-oxo-4,5-dihydro-3H-1-thia-3,5,8-triazaacenaphthylene-2-carboxamide], the “BTK_I_binding pIC50” value came out at 8.1.

In the case of `Cc1cc(Oc2ccccc2)ccc1N1C(=O)Nc2c(C(=O)N[C@@H]3CCN(C(=O)/C=C/CO)C3)sc3nccc1c23` (single isomer, unassigned) [Example 522, (R,E)-N-(1-(4-Hydroxybut-2-enoyl)pyrrolidin-3-yl)-5-(*S)-(2-methyl-4-phenoxyphenyl)-4-oxo-4,5-dihydro-3H-1-thia-3,5,8-triazaacenaphthylene-2-carboxamide], the “BTK_I_binding pIC50” value came to 8.0.

For `CN[C@@H](C)C(=O)N1CCC[C@@H](NC(=O)c2sc3nccc4c3c2NC(=O)N4c2ccc(Oc3ccccc3)cc2C)C1` (single isomer, unassigned) [Example 524, 5-(*S)-(2-Methyl-4-phenoxyphenyl)-N—((R)-1-((S)-2-(methylamino)propanol)piperidin-3-yl)-4-oxo-4,5-dihydro-3H-1-thia-3,5,8-triazaacenaphthylene-2-carboxamide], the “BTK_I_binding pIC50” value amounted to 7.8.

As for `C=CS(=O)(=O)N1CCC[C@@H](NC(=O)c2sc3nccc4c3c2NC(=O)N4c2ccc(Oc3ccccc3)cc2C)C1` (single isomer, unassigned) [Example 530, (R)-5-(*S)-(2-Methyl-4-phenoxyphenyl)-4-oxo-N-(1-(vinylsulfonyl)piperidin-3-yl)-4,5-dihydro-3H-1-thia-3,5,8-triazaacenaphthylene-2-carboxamide], the “BTK_I_binding pIC50” value was 8.0.

As to `CCS(=O)(=O)N1CCC[C@@H](NC(=O)c2sc3nccc4c3c2NC(=O)N4c2ccc(Oc3ccccc3)cc2C)C1` (single isomer, unassigned) [Example 539, (R)—N-(1-(Ethylsulfonyl)piperidin-3-yl)-5-(*S)-(2-methyl-4-phenoxyphenyl)-4-oxo-4,5-dihydro-3H-1-thia-3,5,8-triazaacenaphthylene-2-carboxamide], the “BTK_I_binding pIC50” value was 7.2.

`Cc1cc(Oc2ccccc2)ccc1N1C(=O)Nc2c(C(=O)N[C@@H]3CCCN(C(C)C)C3)sc3nccc1c23` (single isomer, unassigned) [Example 542, (R)—N-(1-Isopropylpiperidin-3-yl)-5-(*S)-(2-methyl-4-phenoxyphenyl)-4-oxo-4,5-dihydro-3H-1-thia-3,5,8-triazaacenaphthylene-2-carboxamide]: the “BTK_I_binding pIC50” value was 7.2.

Still in this experiment, the particulars now being: unphosphorylated-BTK kinase domain, 50 nM Tracer 236, 60 minutes; pIC50 = negative log of the IC50 in molar; read-out: BTK_I_binding pIC50 (converted).
For the compound `[2H]C([2H])([2H])N1CCC[C@@H](NC(=O)c2sc3nccc4c3c2NC(=O)N4c2ccc(Oc3ccccc3)cc2C)C1` (single isomer, unassigned) [Example 535, (R)-5-(*S)-(2-Methyl-4-phenoxyphenyl)-N-(1-trideuteriomethylpiperidin-3-yl)-4-oxo-4,5-dihydro-3H-1-thia-3,5,8-triazaacenaphthylene-2-carboxamide], the IC50 was 31.6 nM.
